From paper PMC8329197, “Compounds targeting OSBPL7 increase ABCA1-dependent cholesterol efflux preserving kidney function in two models of kidney disease” (Nature Communications, 2021) come the findings set out here.

Where “and” joins values, the source holds several entries; their conditions need not be identical. Identical values can stand only once. Bounds are passed on as bounds.

Data set [1] deals with T1, OSBPL7.
T1 construct: Plasmids expressing each as a full-length protein with a C-terminal FLAG tag were obtained; expressed in transfected cells; host or cells: HEK293
Nature of the data set: Competition with ^3H-Cpd K UV cross-linking to FLAG-tagged OSBPL7 in HEK293 cells (immunoprecipitation, autoradiography). Set-up: OSBP7 percentage of inhibition / OSBP7 percentage of inhibition, average: concentration or dose not given beside the values; OSBPL7 Competition %: dose or concentration left out as unconfirmed. The data set is classed as binding, human. As for the experimental part: Briefly, a plasmid expressing a candidate target of interest fused with a FLAG tag was transfected into HEK293 cells. After 24 h, tritiated compound K at a concentration capable of inducing ABCA1-mediated cholesterol efflux (1.0 μM) was added for 3 h, then the live cells were exposed to UV-light (ʎ = 336 nm) to query potential compound/target cross-linking in situ. Cell lysates were prepared, the expressed protein was then selectively immunoprecipitated using an anti-FLAG antibody coupled to sepharose beads, bound proteins were separated by SDS-PAGE, and two identical blots were prepared and probed by western blot and by autoradiography to detect protein expression and presence or absence of compound crosslinking, respectively. The flow chart of this screen is illustrated in Fig. 2. Figure 2d illustrates the ability of Cpd A and Cpd G to displace tritiated Cpd K from overexpressed and immunoprecipitated OSBPL7. Figure 3b illustrates the use of this assay to detect binding of tritiated Cpd K to overexpressed and immunoprecipitated variants of OSBPL7 containing point mutations in the predicted oxysterol binging pocket of OSBPL7. The advantages of this method are: i. the use of plasmid transfection leads to high expression of each candidate which reduces the likelihood to miss an authentic target for those which may be expressed at low endogenous levels, ii. the interaction of the chemical probe with its target occurs in a relevant biological context (live cells) at a pharmacologically active concentration, and iii. immunoprecipitation allows the expressed protein of interest to be purified from background proteins, substantially improving the signal/noise ratio.

Data set [2] concerns human THP1 macrophages. Nature of the data set: apoAI-mediated (ABCA1) cholesterol efflux from cholesterol-loaded THP1 macrophages. The data set is classed as cell-based. Set-up: ABCA1 Efflux %: dose or concentration left out as unconfirmed.
The test system of data set [3] is CYPs (HLM.). In words: CYP inhibition in HLM. The data set is classed as in vitro ADME, human.
Data set [4] concerns Col4a3 KO mice. Nature of the data set: Alport syndrome model: mesangial expansion score in PAS-stained kidney sections. The data set is classed as in vivo, mouse. As to conditions: age 8 weeks, Cpd G 100 mg/Kg/day. As for the experimental part:
(§1) Formalin-fixed paraffin-embedded kidney cortex sections 4 μm thick were stained with Periodic acid-Schiff (PAS). The slides were analyzed by a renal pathologist in a double-blind design. Glomerular sclerosis, (global and segmental), podocyte hypertrophy and podocyte hyperplasia were expressed as the percentage of glomeruli found with these abnormalities. Tubular microcysts and interstitial inflammation were scored on a 0–4 scale where 0 = 0%, 0.5 = 1–10%, 1 = 11–25%, 2: 26–50 %, 3: 51–75%, and 4 = more than 75% damage.

A short description of data set [5]: Hepatocytes Clint, human. It is filed as in vitro ADME.
Data set [6] has as its system Adriamycin (ADR)-induced nephropathy in Balb/c mice. Nature of the data set: ADR nephropathy: blinded histology of PAS-stained kidney sections. It is filed as in vivo, mouse. As for the experimental part: as §1
Data set [7] concerns THP1 macrophages transfected with siRNA. Nature of the data set: apoAI-mediated cholesterol efflux in siRNA-transfected THP1 macrophages. Set-up: unit not given here. To be noted: Cpd G 5 µM; for APOA1-MEDIATED CHOLESTEROL EFFLUX: single experiments. It is filed as cell-based, human. As for the experimental part:
siRNA pools specific for human OSBPL7, human CB1R and non target siRNA negative control are summarized in Supplementary Table 6. THP1 monocytes were seeded at a density of 80,000 cells/well in 96-well plates and differentiated with PMA as described above. After 72 h, medium was replaced by 50 µl of fresh medium per well. Cells were then transfected using Viromer Blue reagent (Origene) following the manufacturer’s directions. Briefly, 10 µl of siRNA (5 µM) was mixed with 90 µl of Viromer Blue (diluted 1% v/v in supplied buffer). After 15 min incubation, siRNA-transfection reagent complexes were diluted 1:6.5 in fresh medium and added in a volume of 50 µl per well. After 24 h, cells were then loaded with cholesterol by incubation with acetylated LDL (25 µg/ml) in RPMI medium, 1% FBS, 100 nM PMA, 2 µCi ^3H-cholesterol for 24 h. A set of wells containing transfected cells was set aside to verify transfection efficiency by RT-PCR. The cholesterol-loaded macrophages were then incubated in the presence of Cpd G 5 μM, or vehicle (0.1% DMSO) in RPMI medium w/o Phenol Red, 0.2% BSA) for an additional 24 h. Cholesterol efflux was then measured as described above.

Data set [8] in a line: Free fraction, rat. It is filed as in vitro ADME. As to conditions: read-out: free fraction rat / man [%].
A short description of data set [9]: Microsomal metabolism, human. The data set is classed as in vitro ADME.
Data set [10] concerns Col4a3 KO mice. Nature of the data set: Alport syndrome model: serum cholesterol and triglycerides. The data set is classed as in vivo, mouse.
The mark [11] stands for this setting: single experiments (3 per compound).
[12] abbreviates: ADR + Cpd G 100 mg/Kg, single animals.
The mark [13] stands for this setting: score 0: 0%, 0.5: 1–10%, 1: 11–25%, 2: 26–50%, 3: 51–75%, 4: >75%, single animals.

For `O=C(N[C@@H]1CCCC[C@H]1O)c1ccc(OCC(F)(F)F)c(-c2ccc(Cl)c(Cl)c2)n1` [Cpd A], the “OSBP7 percentage of inhibition, average” value in data set [1] (average of 3) was 65%. Besides, in [1] (average(SEM)), the “OSBPL7 Competition %” value is listed as 65(8.1) %. In addition, in data set [1] (setting [11]), the “OSBP7 percentage of inhibition” value is 50% and 78% and 67%. For the same molecule, in data set [1] (unlabeled Cpd K at 50-fold excess, Cpd A, Cpd G 10 and 50 µM), the “Competition for ^3H-Cpd K binding to OSBPL7” value is reported as “effective competitors”. In [2] (average of 3), the “ABCA1 percentage of induction, average” value came out at 91%. In data set [2] (average(SEM)), the “ABCA1 Efflux %” value is 91(4.9) %. Also, in data set [2] (setting [11]), the “ABCA1 percentage of induction” value was 81% and 94% and 97%.

For the molecule `O=C(N[C@@H]1CCCC[C@H]1O)c1cnc(OCC(F)(F)F)c(-c2ccc(Cl)c(Cl)c2)c1` [Cpd G], in [3], the “CYPs (HLM.)” value is greater than 25 µM. The “MESANGIAL EXPANSION (scale 1-5), Median” value in [4] amounted to 2. Moreover, the “MESANGIAL EXPANSION (scale 1-5)” value in data set [4] (single animals) is 2 and 2.5 and 1.5. In addition, the “Hepatocytes Clint (Fh%) (r/h)” value in data set [5] is on record as greater than 80%. Also, in data set [6] (ADR + Cpd G 100 mg/Kg), the “Global glomerular sclerosis (% of gloms with), median” value amounted to 0%; the “Interstitial Inflammation (scale 0-4), Range” value was 0-0.5; the “Mesangial expansion (scale 0-5), Range” value was 1-2; the “Podocyte hyperplasia (% of gloms with), median” value is on record as 0%. For the same molecule, in data set [6] (ADR + Cpd G 100 mg/Kg), the “Segmental glomerular sclerosis (% of gloms with), median” value turned out to be 0%; the “Tubular microcysts (scale 0-4), Range” value was 0 -1; the “podocyte hypertrophy (% of gloms with), median” value is on record as 0%. In addition, in data set [6] (setting [12]), the “Global Glom. Sclerosis, % of glomeruli with” value stood at 0%; the “Mesangial Expansion (Scale 0-5)” value was 1.25 and 1.5 and 1; the “Podocyte Hyperplasia, % of glomeruli with” value was found to be 0%; the “Podocyte Hypertrophy, % of glomeruli with” value is recorded as 0%. For the same molecule, the “Segmental Glom. Sclerosis, % of glomeruli with” value in data set [6] (setting [12]) amounted to 0%. For the same molecule, in [6] (setting [13]), the “Interstitial Inflammation (Scale 0-4)” value was 0 and 0.5; the “Tubular Microcysts (Scale 0-4)” value was 1 and 0 and 0.5. Besides, in data set [7] (siCB1R cells), the “APOA1-MEDIATED CHOLESTEROL EFFLUX, mean” value amounted to 4.467; the “APOA1-MEDIATED CHOLESTEROL EFFLUX” value was 5.6 and 4.3 and 3.5. For the same molecule, in data set [7] (siCTRL cells), the “APOA1-MEDIATED CHOLESTEROL EFFLUX, mean” value was 4.267; the “APOA1-MEDIATED CHOLESTEROL EFFLUX” value is 5 and 4.8 and 3. Further, the fraction unbound in data set [8] is less than 0.01. Further, the “Microsomes (MAB%) (r/h)” value in [9] is recorded as 82%. The “SERUM TRIGLYCERIDES” value in data set [10] (8 week-old Col4a3 KO, Cpd G 4 weeks, single animals) was 78 mg/dL and 59 mg/dL and 83 mg/dL and 72 mg/dL. Further, in data set [10] (Col4a3 KO, Cpd G 100 mg/kg), the “SERUM CHOLESTEROL” value is recorded as “no effect on serum cholesterol” and the “SERUM TRIGLYCERIDES” value is listed as “tended to reduce serum triglycerides”. In [10] (Col4a3 KO, Cpd G 28 days, single animals), the “SERUM CHOLESTEROL” value is 94 mg/dL and 139 mg/dL and 205 mg/dL and 126 mg/dL.
